Source: PubChem BioAssay AID248 (DTP/NCI, 2004)
Values joined by “and” are separate entries in the source; they are usually repeats but may differ in a detail not shown here. Equal values may be shown once. Toxic doses and inconclusive results are not listed. Cut-off read from the data, not from the text of the source: active = T/C of 150% or more; inactive = T/C below 125%.

Test system: L1210 leukemia ip in BDF1 mice, survival T/C
Assay: NCI In Vivo Anticancer Drug Screen. Data for tumor model L1210 Leukemia (intraperitoneal) in B6D2F1 (BDF1) mice
Settings: endpoint: mean survival time, higher = longer survival
In short: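 Tumor was transplanted into mice, which were then dosed with test compound or vehicle alone. Survival was recorded for each group, and the treated figure was expressed relative to the control figure.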

[1] = dose: 100.0 mg/kg/injection, schedule: Q01DX001 (ip), vehicle: saline
[2] = dose: 100.0 mg/kg/injection, schedule: Q04DX003 (ip), vehicle: Klucel (hydroxypropylcellulose) (HPC)
[3] = dose: 200.0 mg/kg/injection, schedule: Q04DX003 (ip), vehicle: Klucel (hydroxypropylcellulose) (HPC)
[4] = dose: 400.0 mg/kg/injection, schedule: Q04DX003 (ip), vehicle: Klucel (hydroxypropylcellulose) (HPC)
[5] = dose: 100.0 mg/kg/injection, schedule: Q01DX009 (ip), vehicle: saline with Tween-80
[6] = dose: 400.0 mg/kg/injection, schedule: Q01DX009 (ip), vehicle: saline with Tween-80
[7] = dose: 400.0 mg/kg/injection, schedule: Q04DX002 (ip), vehicle: Klucel (hydroxypropylcellulose) (HPC)
[8] = dose: 100.0 mg/kg/injection, schedule: Q01DX001 (ip), vehicle: saline with Tween-80
[9] = dose: 200.0 mg/kg/injection, schedule: Q01DX001 (ip), vehicle: saline with Tween-80
[10] = dose: 100.0 mg/kg/injection, schedule: Q04DX003 (ip), vehicle: saline with Tween-80
[11] = dose: 200.0 mg/kg/injection, schedule: Q01DX009 (ip), vehicle: saline with Tween-80
[12] = dose: 200.0 mg/kg/injection, schedule: Q04DX003 (ip), vehicle: saline with Tween-80
[13] = dose: 400.0 mg/kg/injection, schedule: Q04DX003 (ip), vehicle: saline with Tween-80

Measured: T/C

CCCCCCCCCCCCCCCCCCNC(=O)Nc1ccccc1[N+](=O)[O-]
inactive: dose: 50.0 mg/kg/injection, schedule: Q01DX009 (ip), vehicle: DMSO 98 % of control | dose: 100.0 mg/kg/injection, schedule: Q01DX009 (ip), vehicle: DMSO 88 % of control | dose: 100.0 mg/kg/injection, schedule: Q04DX003 (ip), vehicle: DMSO 94 % of control | dose: 200.0 mg/kg/injection, schedule: Q04DX003 (ip), vehicle: DMSO 89 % of control

CCC(N)CO (configuration not stated)
inactive: [1] 97 % of control | dose: 200.0 mg/kg/injection, schedule: Q01DX001 (ip), vehicle: saline 106 % of control

Cc1c2cnccc2c(C)c2c1c1ccccc1n2CCCCCC#N
inactive: [2] 100 % of control | [3] 97 % of control | [4] 100 % of control

CC(=O)c1cc(O)ccc1O
inactive: dose: 25.0 mg/kg/injection, schedule: Q01DX009 (ip), vehicle: saline with Tween-80 96 % of control | dose: 50.0 mg/kg/injection, schedule: Q01DX009 (ip), vehicle: saline with Tween-80 98 % of control | [5] 98 % of control and 86 % of control | [6] 91 % of control

Cc1nc(N)[nH]c(=O)c1CCCNc1nc(Cl)nc(Cl)n1
inactive: dose: 100.0 mg/kg/injection, schedule: Q04DX002 (ip), vehicle: Klucel (hydroxypropylcellulose) (HPC) 91 % of control | dose: 200.0 mg/kg/injection, schedule: Q04DX002 (ip), vehicle: Klucel (hydroxypropylcellulose) (HPC) 91 % of control | [7] 88 % of control

CC(=O)Oc1c2n(c(=O)c3cocc13)Cc1cc3ccccc3nc1-2
inactive: dose: 100.0 mg/kg/injection, schedule: Q01DX001 (ip), vehicle: Klucel (hydroxypropylcellulose) (HPC) 92 % of control | dose: 200.0 mg/kg/injection, schedule: Q01DX001 (ip), vehicle: Klucel (hydroxypropylcellulose) (HPC) 94 % of control | dose: 400.0 mg/kg/injection, schedule: Q01DX001 (ip), vehicle: Klucel (hydroxypropylcellulose) (HPC) 90 % of control

CNC(=O)NCc1cccnc1
inactive: dose: 100.0 mg/kg/injection, schedule: Q01DX009 (ip), vehicle: saline 111 % of control | dose: 200.0 mg/kg/injection, schedule: Q01DX009 (ip), vehicle: saline 103 % of control | dose: 400.0 mg/kg/injection, schedule: Q01DX009 (ip), vehicle: saline 114 % of control

Cc1ccc(S(=O)(=O)N(C)c2ccc3cc(Br)ccc3c2)cc1
inactive: dose: 100.0 mg/kg/injection, schedule: Q01DX005 (ip), vehicle: Klucel (hydroxypropylcellulose) (HPC) 94 % of control | [2] 95 % of control | dose: 200.0 mg/kg/injection, schedule: Q01DX005 (ip), vehicle: Klucel (hydroxypropylcellulose) (HPC) 100 % of control | [3] 97 % of control | dose: 400.0 mg/kg/injection, schedule: Q01DX005 (ip), vehicle: Klucel (hydroxypropylcellulose) (HPC) 91 % of control | [4] 97 % of control

CC(CC#N)c1ccc[nH]1 (configuration not stated)
inactive: dose: 5.0 mg/kg/injection, schedule: Q01DX001 (ip), vehicle: carboxymethylcellulose (CMC) 115 % of control | dose: 10.0 mg/kg/injection, schedule: Q01DX001 (ip), vehicle: carboxymethylcellulose (CMC) 111 % of control | dose: 20.0 mg/kg/injection, schedule: Q01DX001 (ip), vehicle: carboxymethylcellulose (CMC) 117 % of control | dose: 40.0 mg/kg/injection, schedule: Q01DX001 (ip), vehicle: carboxymethylcellulose (CMC) 113 % of control | dose: 50.0 mg/kg/injection, schedule: Q01DX001 (ip), vehicle: carboxymethylcellulose (CMC) 109 % of control | dose: 80.0 mg/kg/injection, schedule: Q01DX001 (ip), vehicle: carboxymethylcellulose (CMC) 96 % of control | dose: 100.0 mg/kg/injection, schedule: Q01DX001 (ip), vehicle: carboxymethylcellulose (CMC) 102 % of control | dose: 200.0 mg/kg/injection, schedule: Q01DX001 (ip), vehicle: carboxymethylcellulose (CMC) 107 % of control

CCOC(=O)Nc1cc(NCC(O)CN(C)c2ccc(OC)cc2)c([N+](=O)[O-])c(N)n1 (configuration not stated)
inactive: [8] 95 % of control | [9] 93 % of control | dose: 400.0 mg/kg/injection, schedule: Q01DX001 (ip), vehicle: saline with Tween-80 88 % of control

NC(=S)N/N=C/c1ccc[nH]1
inactive: [8] 93 % of control | [9] 98 % of control

CC(C)C12OC1CC1C3(C)CCCC(C)(C(=O)O)C3CCC13OC32 (configuration not stated)
inactive: [5] 98 % of control | [10] 90 % of control | [11] 96 % of control | [12] 90 % of control | [6] 93 % of control | [13] 90 % of control

COC(=O)C1c2ccoc2CC2C1C(O)C(O)C1C(C)(C)CCCC21C (configuration not stated)
inactive: dose: 50.0 mg/kg/injection, schedule: Q04DX003 (ip), vehicle: saline with Tween-80 103 % of control | [10] 95 % of control | [12] 95 % of control

CC(=O)OC(C(C)=O)C(C)=O.CC(=O)OC(C(C)=O)C(C)=O.[Cu]
inactive: dose: 12.0 mg/kg/injection, schedule: Q01DX001 (ip), vehicle: saline 93 % of control | dose: 12.0 mg/kg/injection, schedule: Q04DX003 (ip), vehicle: saline 96 % of control | dose: 25.0 mg/kg/injection, schedule: Q01DX001 (ip), vehicle: saline 95 % of control | dose: 25.0 mg/kg/injection, schedule: Q04DX003 (ip), vehicle: saline 96 % of control | dose: 50.0 mg/kg/injection, schedule: Q01DX001 (ip), vehicle: saline 101 % of control | dose: 50.0 mg/kg/injection, schedule: Q04DX003 (ip), vehicle: saline 103 % of control

OC1C2c3ccccc3C(c3ccccc32)C1O (configuration not stated)
inactive: dose: 75.0 mg/kg/injection, schedule: Q01DX001 (ip), vehicle: saline 107 % of control | dose: 150.0 mg/kg/injection, schedule: Q01DX001 (ip), vehicle: saline 93 % of control | dose: 300.0 mg/kg/injection, schedule: Q01DX001 (ip), vehicle: saline 99 % of control

O=C1Cc2c(Cl)cccc2C(=S)N1
inactive: dose: 100.0 mg/kg/injection, schedule: Q01DX009 (ip), vehicle: saline sonified 95 % of control | [10] 95 % of control | dose: 200.0 mg/kg/injection, schedule: Q01DX009 (ip), vehicle: saline sonified 91 % of control | [12] 93 % of control | dose: 400.0 mg/kg/injection, schedule: Q01DX009 (ip), vehicle: saline sonified 98 % of control | [13] 92 % of control

Cc1ccc(CNC(=O)Nc2cccc(C(F)(F)F)c2)cc1C
inactive: dose: 100.0 mg/kg/injection, schedule: Q01DX009 (ip), vehicle: gum acacia 89 % of control | dose: 200.0 mg/kg/injection, schedule: Q01DX009 (ip), vehicle: gum acacia 89 % of control

CS(=O)(=O)OCCN(CCOS(C)(=O)=O)c1ccc(/C=N/Nc2ccc([N+](=O)[O-])cc2[N+](=O)[O-])cc1
inactive: [1] 92 % of control | [5] 96 % of control | dose: 100.0 mg/kg/injection, schedule: Q04DX003 (ip), vehicle: saline 91 % of control | [11] 91 % of control | dose: 200.0 mg/kg/injection, schedule: Q04DX003 (ip), vehicle: saline 90 % of control | dose: 400.0 mg/kg/injection, schedule: Q01DX001 (ip), vehicle: saline 89 % of control | [6] 93 % of control | dose: 400.0 mg/kg/injection, schedule: Q04DX003 (ip), vehicle: saline 87 % of control

F[Si](c1cccc2ccccc12)(c1cccc2ccccc12)c1cccc2ccccc12
inactive: [5] 93 % of control | [10] 92 % of control | [11] 87 % of control | [12] 90 % of control | [6] 103 % of control | [13] 97 % of control

Nc1ccc2cc3ccccc3cc2c1
inactive: dose: 12.5 mg/kg/injection, schedule: Q01DX015 (ip), vehicle: saline 104 % of control | dose: 25.0 mg/kg/injection, schedule: Q01DX015 (ip), vehicle: saline 95 % of control | dose: 50.0 mg/kg/injection, schedule: Q01DX015 (ip), vehicle: saline 95 % of control | dose: 100.0 mg/kg/injection, schedule: Q01DX015 (ip), vehicle: saline 97 % of control

Cc1c2c(nn1-c1ccccn1)C(=O)C=C(Nc1ccccc1)C2=O
inactive: dose: 12.5 mg/kg/injection, schedule: Q04DX002 (ip), vehicle: Klucel (hydroxypropylcellulose) (HPC) 92 % of control | dose: 25.0 mg/kg/injection, schedule: Q04DX002 (ip), vehicle: Klucel (hydroxypropylcellulose) (HPC) 96 % of control | dose: 50.0 mg/kg/injection, schedule: Q04DX002 (ip), vehicle: Klucel (hydroxypropylcellulose) (HPC) 92 % of control | [7] 90 % of control

O=C1OCC/C1=C1\CCCO1
inactive: [5] 93 % of control | [11] 100 % of control | [6] 96 % of control
